Columns and labels:
[1] = biological target: T1, Recombinant human liver GK1 (GST-GK) (Homo sapiens, UniProt P35557); experiment: In vitro glucokinase activity (G6PDH-coupled NADH assay); type: biochemical; details: 30° C., 5 mM D-glucose, 10% DMSO
T1 construct: made in house; host or cells: E. coli
T1 sequence (P35557 1-466 isoform P35557-2): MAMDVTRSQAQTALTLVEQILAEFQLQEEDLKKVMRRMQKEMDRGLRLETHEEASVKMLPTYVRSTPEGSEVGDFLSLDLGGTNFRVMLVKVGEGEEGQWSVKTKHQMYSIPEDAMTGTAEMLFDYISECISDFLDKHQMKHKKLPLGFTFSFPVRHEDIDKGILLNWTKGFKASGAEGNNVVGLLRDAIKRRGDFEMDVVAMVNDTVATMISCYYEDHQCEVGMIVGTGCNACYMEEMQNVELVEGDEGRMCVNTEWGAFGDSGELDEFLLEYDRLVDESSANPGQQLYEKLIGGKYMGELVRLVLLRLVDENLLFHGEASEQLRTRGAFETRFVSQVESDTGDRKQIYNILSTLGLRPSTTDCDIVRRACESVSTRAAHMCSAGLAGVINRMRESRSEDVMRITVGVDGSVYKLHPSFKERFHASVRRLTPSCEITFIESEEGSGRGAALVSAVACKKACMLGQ
In short: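 Activation measured as the rate of OD340 rise from G6PDH-coupled NADH production, relative to 10% DMSO control, reported as SC1.5 (concentration for 50% activity increase). Conditions: 30° C, pH 7.1 Hepes, 5 mM glucose, 1 mM ATP, purified recombinant GST-human GK1, compound preincubated 10 min before enzyme addition.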

[2] = tested on: C57B6 mice; experiment: Glucokinase activator in vivo screen: blood glucose lowering in mice after oral dosing; details: Mus musculus, vs control, read-out: % gluc lowering @ 4 H; for change in vivo at 30 mg/kg: 4 h post 30 mg/kg oral dose; for change in vivo at 25 mg/kg: 4 h post 25 mg/kg oral dose
Experimental: Glucokinase Activator in vivo Screen Protocol in Lean and Diet Induced Obese Mice: Lean or Diet-Induced Obese (DIO) C57BL/6J mice were orally dosed via gavage with Glucokinase (GK) activator following a two hour fasting period. Blood glucose determinations were made at various (e.g. 0, 1, 2, 4 and 8 h post-oral gavage) times during the study.
C57Bl/6J mice were obtained from Jackson Laboratory (Bar Harbor, Me.) and were maintained in a light-dark cycle with lights on from 0600-1800 hr. For studies in lean mice, the mice were received at age ten weeks and given ad libitum access to control diet (LabDiet 5001 chow, PMI Nutrition, Brentwood, Mo.), and were at least age 11 weeks at the time of study. For studies in the DIO model, the mice were received at age five weeks and given ad libitum access to Bio-Serv F3282 High Fat Diet (Frenchtown, N.J.), and were at least age 16 weeks at the time of study. The experiments were conducted during the light phase of the light-dark cycle. Mice (n=6) are weighed and fasted for a two hour period prior to oral treatment. GK activators are formulated in Gelucire vehicle (Ethanol:Gelucire44/14:PEG400q.s. 4:66:30 v/w/v. For studies in lean mice, the mice were dosed orally with 5.0 μL per gram of body weight (i.e. 5 ml/kg×10.0 mg/ml formulation to equal a 50 mg/kg dose). For studies in DIO mice, the mice were dosed orally with 5.0 μL per gram of body weight (i.e. 5.0 ml/kg×5 mg/ml formulation to equal a 25 mg/kg dose). Immediately prior to dosing, a pre-dose (time zero) blood glucose reading was acquired by snipping off a small portion of the animal's tail and collecting 15 μL blood into a heparinized capillary tube for analysis. Following GK activator administration, additional blood glucose readings were taken at various time points post dose from the same tail wound. Results were interpreted by comparing the mean blood glucose values of vehicle treated mice with GK activator treated mice over the study period.
The Table below provides data for % glucose lowering of a representative number of compounds of the present invention vs control at 4 h post 25 or 30 mg/kg dose in C57B6 mice: […]

SMILES | SC1.5 (concentration of activator that produced a 50% increase in the activity of GK) [1] | change in vivo at 30 mg/kg [2] | change in vivo at 25 mg/kg [2]
CC(C)(O)Cn1ccc(NC(=O)[C@H](CC2CCOCC2)N2CC(Oc3c(F)cccc3F)=CC2=O)n1 [Example 43, (S)-2-[4-(2,6-Difluoro-phenoxy)-2-oxo-2,5-dihydro-pyrrol-1-yl]-N-[1-(2-hydroxy-2-methylpropyl)-1H-pyrazol-3-yl]-3-(tetrahydro-pyran-4-yl)-propionamide] | 0.058 µM | -38.1% | –
CC(C)(O)Cn1ccc(NC(=O)[C@H](CC2CCCC2)N2CC(OC3CCCCC3)=CC2=O)n1 [Example 17, (S)-3-Cyclopentyl-N-[1-(2-hydroxy-2-methyl-propyl)-1H-pyrazol-3-yl]-2-(4-cyclohexyloxy-2-oxo-2,5-dihydro-pyrrol-1-yl)-propionamide] | 0.366 µM | – | -35.8%
COc1cccc(OC2=CC(=O)N([C@@H](CC(C)C)C(=O)Nc3ccn(C[C@@H](O)CO)n3)C2)c1Cl [Example 49] | 0.079 µM | -38.3% | –
COc1ccccc1OC1=CC(=O)N([C@@H](CC2CCCC2)C(=O)Nc2nccs2)C1 [Example 26, (S)-3-Cyclopentyl-2-[4-(2-methoxy-phenoxy)-2-oxo-2,5-dihydro-pyrrol-1-yl]-N-thiazol-2-yl-propionamide] | 0.031 µM | – | -36.9%
CC(C)(O)Cn1ccc(NC(=O)[C@H](CC2CCCC2)N2CC(Oc3c(F)cccc3F)=CC2=O)n1 [Example 86, (S)-3-Cyclopentyl-2-[4-(2,6-difluoro-phenoxy)-2-oxo-2,5-dihydro-pyrrol-1-yl]-N-[1-(2-hydroxy-2-methyl-propyl)-1H-pyrazol-3-yl]-propionamide] | 0.021 µM | -57.4% | –
COc1cccc(OC2=CC(=O)N([C@@H](CC(C)C)C(=O)Nc3ccn(CC(C)(C)O)n3)C2)c1Cl [Example 48, (S)-2-[4-(2-Chloro-3-methoxy-phenoxy)-2-oxo-2,5-dihydro-pyrrol-1-yl]-4-methyl-pentanoic acid [1-(2-hydroxy-2-methyl-propyl)-1H-pyrazol-3-yl]-amide] | 0.078 µM | -57.4% | –
COc1ccccc1OC1=CC(=O)N([C@@H](CC2CCCCC2)C(=O)Nc2ccn(CC(C)(C)O)n2)C1 [Example 28, (S)-3-Cyclohexyl-N-[1-(2-hydroxy-2-methyl-propyl)-1H-pyrazol-3-yl]-2-[4-(2-methoxy-phenoxy)-2-oxo-2,5-dihydro-pyrrol-1-yl]-propionamide] | 0.013 µM | – | -45.4%
CC(C)C[C@@H](C(=O)Nc1ccn(C[C@@H](O)CO)n1)N1CC(Oc2c(F)cccc2F)=CC1=O [Example 47, (S)-2-[4-(2,6-difluoro-phenoxy)-2-oxo-2,5-dihydro-pyrrol-1-yl]-4-methyl-pentanoic acid [1-((R)-2,3-dihydroxy-propyl)-1H-pyrazol-3-yl]-amide] | 0.257 µM | -33.2% | –
CC(C)(O)Cn1ccc(NC(=O)[C@H](CC2CCCC2)N2CC(OC3CCOCC3)=CC2=O)n1 [Example 18, (S)-3-Cyclopentyl-N-[1-(2-hydroxy-2-methyl-propyl)-1H-pyrazol-3-yl]-2-[2-oxo-4-(tetrahydro-pyran-4-yloxy)-2,5-dihydro-pyrrol-1-yl]-propionamide] | 3.982 µM | – | -10%
O=C(Nc1ccn(C[C@@H](O)CO)n1)[C@H](CC1CCCC1)N1CC(Oc2c(F)cccc2F)=CC1=O [Example 88, (S)-3-Cyclopentyl-2-[4-(2,6-difluoro-phenoxy)-2-oxo-2,5-dihydro-pyrrol-1-yl]-N-[1-((R)-2,3-dihydroxy-propyl)-1H-pyrazol-3-yl]-propionamide] | 0.03 µM | -49.3% | –
COc1ccccc1OC1=CC(=O)N([C@@H](CC2CCCC2)C(=O)Nc2ccn(CC(C)(C)O)n2)C1 [Example 27, (S)-3-Cyclopentyl-N-[1-(2-hydroxy-2-methyl-propyl)-1H-pyrazol-3-yl]-2-[4-(2-methoxy-phenoxy)-2-oxo-2,5-dihydro-pyrrol-1-yl]-propionamide] | 0.029 µM | -52.2% | –
CC(C)(O)Cn1ccc(NC(=O)[C@H](CC2CCCC2)N2CC(OC3CCCC3)=CC2=O)n1 [Example 16, (S)-3-Cyclopentyl-N-[1-(2-hydroxy-2-methyl-propyl)-1H-pyrazol-3-yl]-2-(4-cyclopentyloxy-2-oxo-2,5-dihydro-pyrrol-1-yl)-propionamide] | 0.649 µM | – | -36%
CC(C)C[C@@H](C(=O)Nc1ccn(CC(C)(C)O)n1)N1CC(Oc2cccc(Cl)c2Cl)=CC1=O.Cl [Example 77, (S)-2-[4-(2,3-Dichloro-phenoxy)-2-oxo-2,5-dihydro-pyrrol-1-yl]-4-methyl-pentanoic acid [1-(2-hydroxy-2-methyl-propyl)-1H-pyrazol-3-yl]-amide Hydrochloride] | 0.162 µM | -39.2% | –
CC(C)C[C@@H](C(=O)Nc1ccn(C[C@@H](O)CO)n1)N1CC(Oc2ccccc2Cl)=CC1=O [Example 66, (S)-2-[4-(2-Chloro-phenoxy)-2-oxo-2,5-dihydro-pyrrol-1-yl]-4-methyl-pentanoic acid [1-((R)-2,3-dihydroxy-propyl)-1H-pyrazol-3-yl]-amide] | 0.118 µM | -55.4% | –
COc1cccc(OC2=CC(=O)N([C@@H](CC3CCOCC3)C(=O)Nc3ccn(CC(C)(C)O)n3)C2)c1Cl [Example 51, (S)-2-[4-(2-Chloro-3-methoxy-phenoxy)-2-oxo-2,5-dihydro-pyrrol-1-yl]-N-[1-(2-hydroxy-2-methyl-propyl)-1H-pyrazol-3-yl]-3-(tetrahydro-pyran-4-yl)-propionamide] | 0.03 µM | -53.9% | –
COC(C)(C)Cn1ccc(NC(=O)[C@H](CC2CCCC2)N2CC(OC3CCCC3)=CC2=O)n1 [Example 21, (S)-3-Cyclopentyl-N-[1-(2-methoxy-2-methyl-propyl)-1H-pyrazol-3-yl]-2-(4-cyclopentyloxy-2-oxo-2,5-dihydro-pyrrol-1-yl)-propionamide] | 0.545 µM | – | -26.5%
Cc1ccc(F)c(OC2=CC(=O)N([C@@H](CC(C)C)C(=O)Nc3ccn(C[C@@H](O)CO)n3)C2)c1 [Example 103, (S)-2-[4-(2-Fluoro-5-methyl-phenoxy)-2-oxo-2,5-dihydro-pyrrol-1-yl]-4-methyl-pentanoic acid [1-((R)-2,3-dihydroxy-propyl)-1H-pyrazol-3-yl]-amide] | 0.072 µM | – | –
CC(C)C[C@@H](C(=O)Nc1ccn(C[C@@H](O)CO)n1)N1CC(Oc2cccc3c2cnn3C)=CC1=O [Example 240, (S)-4-Methyl-2-[4-(1-methyl-1H-indazol-4-yloxy)-2-oxo-2,5-dihydro-pyrrol-1-yl]-pentanoic acid [1-((R)-2,3-dihydroxy-propyl)-1H-pyrazol-3-yl]-amide] | 2.636 µM | – | –
CC(C)C[C@@H](C(=O)Nc1ccn(C[C@@H]2C[C@H](CC(=O)OC(C)(C)C)OC(C)(C)O2)n1)N1CC(Oc2ccccc2Cl)=CC1=O [Example 192] | 0.412 µM | – | –

— patent US7741327B2 (Hoffmann-La Roche Inc., priority 2008, dated 2010)
